Laboratory results published in US7186862B2, “Microbicidal agents on the basis of biphenylbenzamide derivatives” (Bayer CropScience AG, priority 2002, dated 2007).
Values belong to the compound of their own block, whether it stands above or below them.

How the values were obtained:
[1] = logP determination by HPLC on reversed-phase column (EEC Directive 79/831); format: physicochemical; settings: 0.1% aqueous phosphoric acid/acetonitrile gradient; for chromatographic logP: reversed-phase HPLC column (C18), pH 2.3, reversed-phase C18, 43° C.; for logP (pH 2.3): reversed-phase C18, 43° C.
Protocol: The logP values given in the tables and preparation examples above are determined in accordance with EEC Directive 79/831 Annex V.48 by HPLC (High Performance Liquid Chromatography) on a reversed-phase column (C18). Temperature: 43° C. The determination is carried out in the acidic range at pH 2.3 using the mobile phases 0.1% aqueous phosphoric acid and acetonitrile; linear gradient from 10% acetonitrile to 90% acetonitrile. Calibration is carried out using unbranched […] (of 3 to 16 carbon atoms) with known logP values (determination of the logP values by the retention time using linear interpolation between two successive alkanones).

Venturia inaequalis = experiment: Venturia test (apple)/protective; format: in vivo; settings: 240 h, application rate 100 g/ha, apple plants, protective spray, evaluation 10 days after inoculation, 100% = no infection, read-out: Efficacy in %
Protocol: (§1) [table] To produce a suitable preparation of active compound, 1 part by weight of active compound is mixed with the stated amounts of solvent and emulsifier, and the concentrate is diluted with water to the desired concentration. To test for protective activity, young plants are sprayed with the preparation of active compound at the stated application rate. After the spray coating has dried on, the plants are inoculated with an aqueous conidia suspension of the apple scab pathogen Venturia inaequalis and then remain in an incubation cabin at about 20° C. and 100% relative atmospheric humidity for 1 day. The plants are then placed in a greenhouse at about 21° C. and a relative atmospheric humidity of about 90%. Evaluation is carried out 10 days after the inoculation. 0% means an efficacy which corresponds to that of the control, whereas an efficacy of 100% means that no infection is observed.

Sphaerotheca fuliginea = experiment: Sphaerotheca test (cucumber)/protective; format: in vivo; settings: Podosphaera fuliginea, 168 h; application rate 100 g/ha; cucumber plants, protective spray; evaluation 7 days after inoculation; 100% = no infection; read-out: Efficacy in %
Protocol: as §1, with “aqueous spore” for “aqueous conidia”, “of Sphaerotheca fuliginea.” for “of the apple scab pathogen Venturia inaequalis and then remain in an incubation cabin at about 20° C. and 100% relative atmospheric humidity for 1 day.”, “about 23°” for “about 21°”, “about 70%.” for “about 90%.”, “out 7” for “out 10”

Podosphaera leucotricha = experiment: Podosphaera test (apple)/protective; format: in vivo; settings: 240 h, application rate 100 g/ha, apple plants, protective spray, evaluation 10 days after inoculation, 100% = no infection, read-out: Efficacy in %
Protocol: as §1, with “spore” for “conidia”, “mildew” for “scab”, “Podosphaera leucotricha.” for “Venturia inaequalis and then remain in an incubation cabin at about 20° C. and 100% relative atmospheric humidity for 1 day.”, “23°” for “21°”, “70%.” for “90%.”

Alternaria solani = experiment: Alternaria test (tomato)/protective; format: in vivo; settings: application rate 750 g/ha; tomato plants, protective spray, inoculation 1 day after treatment; evaluation 7 days after inoculation; 100% = no infection
Protocol: [table] To produce a suitable p reparation of active compound, 1 part by weight of active compound is mixed with the stated amounts of solvent and emulsifier, and the concentrate is diluted with water to the desired concentration. To test for protective activity, young tomato plants are sprayed with the preparation of active compound at the stated application rate. 1 day after the treatment, the plants are inoculated with a spore suspension of Alternaria solani and are then kept at 100% relative atmospheric humidity and 20° C. for 24 h. The plants are then kept at 96% relative atmospheric humidity and a temperature of 20° C. Evaluation is carried out 7 days after the inoculation. 0% means an efficacy which corresponds to that of the control, whereas an efficacy of 100% means that no infection is observed.

SMILES: O=C(Nc1ccccc1-c1ccc(Cl)cc1)c1ccccc1C(F)(F)F [Compound 1]
- chromatographic logP [1]: 3.73
- pest or weed control at 100 g/ha (Venturia inaequalis): 97%
- pest or weed control at 100 g/ha (Sphaerotheca fuliginea): 94%
- pest or weed control at 100 g/ha (Podosphaera leucotricha): 100%

SMILES: O=C(Nc1ccccc1-c1ccc(Cl)cc1Cl)c1ccccc1C(F)(F)F [Compound 2]
- chromatographic logP [1]: 4
- pest or weed control at 100 g/ha (Sphaerotheca fuliginea): 94%
- pest or weed control at 100 g/ha (Podosphaera leucotricha): 100%

SMILES: Cc1cc(Cl)ccc1-c1ccccc1NC(=O)c1ccccc1C(F)(F)F [Compound 3]
- chromatographic logP [1]: 4.14
- pest or weed control at 100 g/ha (Venturia inaequalis): 100%
- pest or weed control at 100 g/ha (Sphaerotheca fuliginea): 100%
- pest or weed control at 100 g/ha (Podosphaera leucotricha): 99%

SMILES: O=C(Nc1ccccc1-c1ccc(Br)cc1)c1ccccc1C(F)(F)F [Compound 5]
- Efficacy in % (Alternaria solani): 94%
- chromatographic logP [1]: 4.03

SMILES: O=C(Nc1ccccc1-c1ccc(C(F)(F)F)cc1)c1ccccc1C(F)(F)F [Compound 6]
- logP (pH 2.3) [1]: 4.05

SMILES: O=C(Nc1ccccc1-c1ccc(OC(F)(F)F)cc1)c1ccccc1C(F)(F)F [Compound 8]
- logP (pH 2.3) [1]: 4.20

SMILES: CSc1ccc(-c2ccccc2NC(=O)c2ccccc2C(F)(F)F)cc1 [Compound 9]
- logP (pH 2.3) [1]: 3.89

SMILES: O=C(Nc1ccccc1-c1ccc(Br)cc1)c1ccccc1Cl [Compound 10]
- Efficacy in % (Alternaria solani): 92%
- chromatographic logP [1]: 3.89

SMILES: O=C(Nc1ccccc1-c1ccc(C(F)(F)F)cc1)c1ccccc1Cl [Compound 11]
- logP (pH 2.3) [1]: 3.89

SMILES: O=C(Nc1ccccc1-c1cccc(Cl)c1)c1ccccc1Cl [Compound 12]
- chromatographic logP [1]: 3.75
- pest or weed control at 100 g/ha (Venturia inaequalis): 100%
- pest or weed control at 100 g/ha (Podosphaera leucotricha): 100%

SMILES: O=C(Nc1ccccc1-c1ccc(OC(F)(F)F)cc1)c1ccccc1Cl [Compound 13]
- logP (pH 2.3) [1]: 4.08

SMILES: CSc1ccc(-c2ccccc2NC(=O)c2ccccc2Cl)cc1 [Compound 14]
- logP (pH 2.3) [1]: 3.75

SMILES: O=C(Nc1ccccc1-c1ccc(F)cc1)c1ccccc1Cl [Compound 15]
- logP (pH 2.3) [1]: 3.40

SMILES: O=C(Nc1ccccc1-c1ccc(Br)cc1)c1ccccc1Br [Compound 16]
- logP (pH 2.3) [1]: 3.91

SMILES: O=C(Nc1ccccc1-c1ccc(C(F)(F)F)cc1)c1ccccc1Br [Compound 17]
- logP (pH 2.3) [1]: 3.94

SMILES: O=C(Nc1ccccc1-c1cccc(Cl)c1)c1ccccc1Br [Compound 18]
- Efficacy in % (Alternaria solani): 100%
- chromatographic logP [1]: 3.78

SMILES: O=C(Nc1ccccc1-c1ccc(OC(F)(F)F)cc1)c1ccccc1Br [Compound 19]
- logP (pH 2.3) [1]: 4.08

SMILES: CSc1ccc(-c2ccccc2NC(=O)c2ccccc2Br)cc1 [Compound 20]
- logP (pH 2.3) [1]: 3.78

SMILES: O=C(Nc1ccccc1-c1ccc(F)cc1)c1ccccc1Br [Compound 21]
- logP (pH 2.3) [1]: 3.42

SMILES: Cc1ccccc1C(=O)Nc1ccccc1-c1ccc(Br)cc1 [Compound 22]
- logP (pH 2.3) [1]: 3.86

SMILES: Cc1ccccc1C(=O)Nc1ccccc1-c1ccc(C(F)(F)F)cc1 [Compound 23]
- logP (pH 2.3) [1]: 3.86

SMILES: Cc1ccccc1C(=O)Nc1ccccc1-c1cccc(Cl)c1 [Compound 24]
- logP (pH 2.3) [1]: 3.72

SMILES: Cc1ccccc1C(=O)Nc1ccccc1-c1ccc(OC(F)(F)F)cc1 [Compound 25]
- logP (pH 2.3) [1]: 4.03

SMILES: CSc1ccc(-c2ccccc2NC(=O)c2ccccc2C)cc1 [Compound 26]
- logP (pH 2.3) [1]: 3.72

SMILES: O=C(Nc1ccccc1-c1ccc(Br)cc1)c1ccccc1I [Compound 27]
- logP (pH 2.3) [1]: 4.00

SMILES: O=C(Nc1ccccc1-c1ccc(C(F)(F)F)cc1)c1ccccc1I [Compound 28]
- logP (pH 2.3) [1]: 4.03

SMILES: O=C(Nc1ccccc1-c1cccc(Cl)c1)c1ccccc1I [Compound 29]
- logP (pH 2.3) [1]: 3.86

SMILES: O=C(Nc1ccccc1-c1ccc(OC(F)(F)F)cc1)c1ccccc1I [Compound 30]
- logP (pH 2.3) [1]: 4.21

SMILES: CSc1ccc(-c2ccccc2NC(=O)c2ccccc2I)cc1 [Compound 31]
- logP (pH 2.3) [1]: 3.86

SMILES: O=C(Nc1ccccc1-c1ccc(F)cc1)c1ccccc1I [Compound 32]
- logP (pH 2.3) [1]: 3.55

SMILES: O=C(Nc1ccccc1-c1ccc(F)c(F)c1)c1ccccc1C(F)(F)F [Compound 33]
- Efficacy in % (Alternaria solani): 94%
- chromatographic logP [1]: 3.55
- pest or weed control at 100 g/ha (Venturia inaequalis): 100%
- pest or weed control at 100 g/ha (Sphaerotheca fuliginea): 82%
- pest or weed control at 100 g/ha (Podosphaera leucotricha): 100%

SMILES: O=C(Nc1ccccc1-c1ccc(Cl)c(F)c1)c1ccccc1C(F)(F)F [Compound 34]
- chromatographic logP [1]: 3.76
- pest or weed control at 100 g/ha (Venturia inaequalis): 100%
- pest or weed control at 100 g/ha (Sphaerotheca fuliginea): 95%
- pest or weed control at 100 g/ha (Podosphaera leucotricha): 100%

SMILES: O=C(Nc1ccccc1-c1ccc(F)c(Cl)c1)c1ccccc1C(F)(F)F [Compound 35, N-(3′-chloro-4′-fluoro-1,1′-biphenyl-2-yl)-2-(trifluoromethyl)benzamide]
- chromatographic logP [1]: 3.81
- pest or weed control at 100 g/ha (Venturia inaequalis): 100%
- pest or weed control at 100 g/ha (Sphaerotheca fuliginea): 93%
- pest or weed control at 100 g/ha (Podosphaera leucotricha): 100%

SMILES: O=C(Nc1ccccc1-c1ccc(F)cc1F)c1ccccc1C(F)(F)F [Compound 36]
- logP (pH 2.3) [1]: 3.41

Further lines, with some results ahead:

- logP (pH 2.3) [1]: 4.08
SMILES: O=C(Nc1ccccc1-c1ccc(OC(F)(F)F)c(F)c1)c1ccccc1C(F)(F)F [Compound 37]

- logP (pH 2.3) [1]: 4.18
SMILES: O=C(Nc1ccccc1-c1ccc(Cl)c(C(F)(F)F)c1)c1ccccc1C(F)(F)F [Compound 38]

- logP (pH 2.3) [1]: 4.18
SMILES: Cc1ccc(-c2ccccc2NC(=O)c2ccccc2C(F)(F)F)cc1C(F)(F)F [Compound 39]

- logP (pH 2.3) [1]: 4.41
SMILES: O=C(Nc1ccccc1-c1ccc(OC(F)(F)F)c(C(F)(F)F)c1)c1ccccc1C(F)(F)F [Compound 40]

- chromatographic logP [1]: 3.9
SMILES: O=C(Nc1ccccc1-c1ccc(F)c(C(F)(F)F)c1)c1ccccc1C(F)(F)F [Compound 41]
- pest or weed control at 100 g/ha (Sphaerotheca fuliginea): 100%
- pest or weed control at 100 g/ha (Podosphaera leucotricha): 94%

- chromatographic logP [1]: 4.18
SMILES: Cc1cc(-c2ccccc2NC(=O)c2ccccc2C(F)(F)F)ccc1Cl [Compound 42, N-(4′-chloro-3′-methyl-1,1′-biphenyl-2-yl)-2-(trifluoromethyl)benzamide]
- pest or weed control at 100 g/ha (Venturia inaequalis): 100%
- pest or weed control at 100 g/ha (Sphaerotheca fuliginea): 100%
- pest or weed control at 100 g/ha (Podosphaera leucotricha): 100%

- logP (pH 2.3) [1]: 4.16
SMILES: O=C(Nc1ccccc1-c1cc(Cl)cc(Cl)c1)c1ccccc1C(F)(F)F [Compound 43]

- logP (pH 2.3) [1]: 4.06
SMILES: O=C(Nc1ccccc1-c1ccc(Cl)c(Cl)c1)c1ccccc1I [Compound 44]

- logP (pH 2.3) [1]: 3.68
SMILES: O=C(Nc1ccccc1-c1ccc(Cl)cc1F)c1ccccc1C(F)(F)F [Compound 45]

- logP (pH 2.3) [1]: 3.74
SMILES: O=C(Nc1ccccc1-c1ccc(Cl)cc1)c1ccccc1I [Compound 46]

- logP (pH 2.3) [1]: 4.11
SMILES: O=C(Nc1ccc(F)cc1-c1ccc(Cl)c(Cl)c1)c1ccccc1C(F)(F)F [Compound 47]

- logP (pH 2.3) [1]: 3.81
SMILES: O=C(Nc1c(F)cccc1-c1ccc(Cl)c(Cl)c1)c1ccccc1C(F)(F)F [Compound 48]

- logP (pH 2.3) [1]: 3.64
SMILES: O=C(Nc1ccccc1-c1ccc(Cl)cc1)c1ccccc1Cl [Compound 49]

- logP (pH 2.3) [1]: 3.66
SMILES: O=C(Nc1ccccc1-c1ccc(Cl)cc1)c1ccccc1Br [Compound 50]

- chromatographic logP [1]: 2.99
SMILES: O=C(Nc1ccccc1Br)c1ccccc1C(F)(F)F [IV-1, N-(2-bromophenyl)-2-(trifluoro-methyl)benzamide]
